In PubChem BioAssay (NCI):
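The compound was tested at five concentrations on cells cultured in 96-well plates, with a 48-hour exposure period. TGI denotes the concentration required for complete inhibition of growth.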

Tests used:
Test in all cases: NCI anticancer screen, dose series, 48 h
NCI/ADR-RES ovarian = test system: NCI/ADR-RES ovarian
COLO 205 colon = test system: COLO 205 colon
RXF 393 renal = test system: RXF 393 renal
NCI-H522 lung = test system: NCI-H522 lung
SK-MEL-28 melanoma = test system: SK-MEL-28 melanoma
HT29 colon = test system: HT29 colon
EKVX NSCLC = test system: EKVX NSCLC
CCRF-CEM leukemia = test system: CCRF-CEM leukemia
A549 NSCLC = test system: A549 NSCLC
ACHN renal = test system: ACHN renal

| SMILES | TGI (NCI/ADR-RES ovarian) [µM] | TGI (COLO 205 colon) [µM] | TGI (RXF 393 renal) [µM] | TGI (NCI-H522 lung) [µM] | TGI (SK-MEL-28 melanoma) [µM] | TGI (HT29 colon) [µM] | TGI (EKVX NSCLC) [µM] | TGI (CCRF-CEM leukemia) [µM] | TGI (A549 NSCLC) [µM] | TGI (ACHN renal) [µM] |
| --- | --- | --- | --- | --- | --- | --- | --- | --- | --- | --- |
| COc1cc(C2c3cc4c(cc3[C@@H](Nc3ccccc3)C3COC(=O)[C@H]23)OCO4)cc(OC)c1O (stereo partly specified) | 45.2 | 5.66 | 6.8 | 3.7 | 23.1 | 3.64 | 8.47 | 0.476 | 1.82 |  |
| O=C1NC(O)CCN1C1OC(CO)C(O)C1O (stereo unspecified) | > 250 | > 250 | > 250 | 247 | > 250 | > 250 | > 250 | > 250 | > 250 |  |
| COc1ccc(-c2nc3ccccc3c(=S)n2OC(C)=O)cc1 | > 25 | > 25 | > 25 |  | > 25 | > 25 | > 25 | > 25 | > 25 | > 25 |
| C=C1C(=O)[C@@]23CC[C@@H]4[C@@]5(C)CCC[C@@]4(OC5=O)[C@@]2(C)CC[C@@H]1C3 | 21.4 |  | 3.25 | 2.43 | 10.3 | 10.6 | 11.8 | > 33.7 | 36.3 | 2.64 |
| Cn1ncc2c(NCc3ccccc3)ncnc21 | > 100 | > 100 | > 100 |  | > 100 | > 100 | > 100 | > 100 | > 100 | > 100 |
| CCN(CC)c1ccc(/C=C/c2ccnc3ccccc23)cc1 | > 100 | > 100 | > 100 |  | > 100 | > 100 | > 100 | > 100 | > 100 | > 100 |
| CC(C)(C)N=C(N)NC#N | > 100 | > 100 | > 100 |  | > 100 | > 100 | > 100 | > 100 | > 100 | > 100 |
| N#CC(c1ccccc1)N(CCOCCOCCN(C(=O)c1ccccc1)C(C#N)c1ccccc1)C(=O)c1ccccc1 (stereo unspecified) | > 100 | > 100 | > 100 |  | > 100 | > 100 | > 100 | > 100 | > 100 | > 100 |
| CN1CCN(Cc2cc3c(nn2)-c2ccccc2C3=O)CC1 | > 100 | 34.3 | > 100 | 64.3 |  | > 100 | > 100 | > 100 | > 100 | 62.4 |
| CN(C)Cc1cc(C(=O)/C=C/c2ccc([N+](=O)[O-])cc2)cc(CN(C)C)c1O | 87 | 4.67 | 38.1 | 20.1 |  | 25 | 37.3 | 21.4 | 89 | 10.2 |
| CC(C(=O)COCc1ccccc1)P1(=O)OC(C)(C)CN1C(C)(C)C (stereo unspecified) | > 100 | > 100 | > 100 | > 100 |  | > 100 | > 100 | > 100 | > 100 | > 100 |
| O=C(NN1C(=O)CS(=O)(=O)C1c1ccc(C(F)(F)F)cc1)c1ccncc1 (stereo unspecified) |  | > 100 | > 100 | > 100 | > 100 | > 100 |  | > 100 | > 100 | > 100 |
| CC1(C)CCc2c(ccc(C(=O)/C=C/c3ccc(O)cc3)c2O)O1 | 21.6 | 20.7 | 20.4 |  | 17 | 23.9 | 10.1 | 13.2 | 25.8 | 20.5 |
| COc1cc(C=O)ccc1O | > 100 | > 100 |  | > 100 | > 100 | > 100 | > 100 | > 100 | > 100 | > 100 |
| O=C1C(=Nc2ccc(Nc3ccccc3)cc2)Oc2ccccc21 |  | 3.01 | 4.89 | 4.3 | 19.3 | 4.53 | 27.7 | 4.92 | 10.7 | 9.93 |
| CC(C)C1=CC23CCC4C(C)(C(=O)O)CCCC4(C)C2CC1C1C(=O)N(CCCCCCN2C(=O)C4C5CC6C7(C)CCCC(C)(C(=O)O)C7CCC6(C=C5C(C)C)C4C2=O)C(=O)C13 (stereo unspecified) |  |  | 28.3 | 26.6 | 23.6 | 13.8 | 21.6 | 37.7 | 45.3 | 22.8 |
| COC1OC2COC(c3ccccc3)OC2C(O)C1OC(=S)c1ccccc1 (stereo unspecified) | > 100 | 33 | > 100 |  | > 100 | 47.9 | 51.7 | 48.5 | > 100 | 67 |
